Measured values reported in ChEMBL document CHEMBL3885861, “Open TG-GATES”.

Species: Rattus norvegicus
Test: Open TG-GATES - Regimen: Single
Assay type: toxicity, organism-based, Sprague-Dawley
Parameters: regimen Single, gender Male, age 6 weeks
Settings: in vivo, po, route gavage; for APTT / Bas / Eos / Fbg / Hb / Ht / Lym / MCH / MCHC / MCV / Mono / Neu / PT / Plat / RBC / Ret / WBC: tissue Blood; for KIDNEY_L / KIDNEY_R / KIDNEY_TOTAL: tissue Kidney; for LIVER: tissue Liver; for A/G / ALP / ALT / AST / BUN / CRE / Ca / Cl / DBIL / GLC / IP / K / LDH / Na / PL / RALB / TBIL / TC / TG / TP / gamma-GTP: tissue Plasma
[1] = 300 mg/kg, 3 h, dose level Middle
[2] = 300 mg/kg, 6 h, dose level Middle
[3] = 300 mg/kg, 9 h, dose level Middle
[4] = 300 mg/kg, 24 h, dose level Middle
[5] = 1000 mg/kg, 3 h, dose level High
[6] = 1000 mg/kg, 6 h, dose level High
[7] = 1000 mg/kg, 9 h, dose level High
[8] = 1000 mg/kg, 24 h, dose level High

## Cc1nnc2n1-c1ccc(Cl)cc1C(c1ccccc1Cl)=NC2 [TRIAZOLAM]
[1]
  TERMINAL_BW: 190.9 g
  APTT: 16.4 s
  Bas: 0.2%
  Eos: 1%
  Fbg: 270.4 mg/dL
  Hb: 13.9 g/dL
  Ht: 42.3%
  Lym: 73.8%
  MCH: 21 pg
  MCHC: 33%
  MCV: 63.6 fL
  Mono: 3%
  Neu: 21.4%
  PT: 13.4 s
  Plat: 117 x10_4/uL
  RBC: 665.8 x10_4/ul
  Ret: 9%
  WBC: 63.2 x10_2/uL
  KIDNEY_L: 0.8 g
  KIDNEY_R: 0.8 g
  KIDNEY_TOTAL: 1.7 g
  LIVER: 8.6 g
  A/G: 0.9
  ALP: 1451.2 IU/L
  ALT: 40.2 IU/L
  AST: 71 IU/L
  BUN: 9.6 mg/dL
  CRE: 0.1 mg/dL
  Ca: 11.3 mg/dL
  Cl: 103.2 meq/L
  DBIL: 0.008 mg/dL
  GLC: 189 mg/dL
  IP: 10.7 mg/dL
  K: 4.2 meq/L
  LDH: 79.4 IU/L
  Na: 141.4 meq/L
  PL: 169.4 mg/dL
  RALB: 2.5 g/dL
  TBIL: 0.066 mg/dL
  TC: 90.4 mg/dL
  TG: 60.8 mg/dL
  TP: 5.2 g/dL
  gamma-GTP: 1.8 IU/L
[2]
  TERMINAL_BW: 191.6 g
  APTT: 17.4 s
  Bas: 0%
  Eos: 0.4%
  Fbg: 282.8 mg/dL
  Hb: 13.8 g/dL
  Ht: 42.4%
  Lym: 77.2%
  MCH: 20.5 pg
  MCHC: 32.6%
  MCV: 63 fL
  Mono: 2.4%
  Neu: 18.8%
  PT: 13.5 s
  Plat: 123.3 x10_4/uL
  RBC: 674.2 x10_4/ul
  Ret: 9.2%
  WBC: 77.5 x10_2/uL
  KIDNEY_L: 0.9 g
  KIDNEY_R: 0.9 g
  KIDNEY_TOTAL: 1.8 g
  LIVER: 8.3 g
  A/G: 0.9
  ALP: 1395 IU/L
  ALT: 35.6 IU/L
  AST: 66.6 IU/L
  BUN: 10.2 mg/dL
  CRE: 0.1 mg/dL
  Ca: 11.2 mg/dL
  Cl: 103 meq/L
  DBIL: 0.01 mg/dL
  GLC: 183.4 mg/dL
  IP: 10.9 mg/dL
  K: 4.1 meq/L
  LDH: 63.2 IU/L
  Na: 141.8 meq/L
  PL: 147.6 mg/dL
  RALB: 2.5 g/dL
  TBIL: 0.068 mg/dL
  TC: 81.2 mg/dL
  TG: 37.6 mg/dL
  TP: 5.3 g/dL
  gamma-GTP: 1 IU/L
[3]
  TERMINAL_BW: 193.6 g
  APTT: 16.7 s
  Bas: 0%
  Eos: 0.8%
  Fbg: 279.6 mg/dL
  Hb: 13.5 g/dL
  Ht: 41.2%
  Lym: 74%
  MCH: 21.4 pg
  MCHC: 32.8%
  MCV: 65.5 fL
  Mono: 2.2%
  Neu: 22%
  PT: 13.5 s
  Plat: 121.1 x10_4/uL
  RBC: 629.6 x10_4/ul
  Ret: 9.5%
  WBC: 87.2 x10_2/uL
  KIDNEY_L: 0.9 g
  KIDNEY_R: 0.8 g
  KIDNEY_TOTAL: 1.7 g
  LIVER: 7.6 g
  A/G: 0.9
  ALP: 1488.6 IU/L
  ALT: 32 IU/L
  AST: 65.2 IU/L
  BUN: 10 mg/dL
  CRE: 0.2 mg/dL
  Ca: 11 mg/dL
  Cl: 104.4 meq/L
  DBIL: 0.01 mg/dL
  GLC: 188 mg/dL
  IP: 10.6 mg/dL
  K: 4.4 meq/L
  LDH: 57.4 IU/L
  Na: 141.2 meq/L
  PL: 144.2 mg/dL
  RALB: 2.4 g/dL
  TBIL: 0.058 mg/dL
  TC: 74.2 mg/dL
  TG: 49.4 mg/dL
  TP: 5.1 g/dL
  gamma-GTP: 1.2 IU/L
[4]
  TERMINAL_BW: 207.4 g
  APTT: 28.1 s
  Bas: 0%
  Eos: 1%
  Fbg: 263.2 mg/dL
  Hb: 13.5 g/dL
  Ht: 40.8%
  Lym: 74.8%
  MCH: 21 pg
  MCHC: 33%
  MCV: 63.6 fL
  Mono: 2.6%
  Neu: 21%
  PT: 13.3 s
  Plat: 127 x10_4/uL
  RBC: 643.6 x10_4/ul
  Ret: 8%
  WBC: 94.8 x10_2/uL
  KIDNEY_L: 0.9 g
  KIDNEY_R: 0.9 g
  KIDNEY_TOTAL: 1.8 g
  LIVER: 9.2 g
  A/G: 0.9
  ALP: 1802.4 IU/L
  ALT: 44.4 IU/L
  AST: 66.2 IU/L
  BUN: 11.8 mg/dL
  CRE: 0.2 mg/dL
  Ca: 11.3 mg/dL
  Cl: 102.8 meq/L
  DBIL: 0.018 mg/dL
  GLC: 180.2 mg/dL
  IP: 9.2 mg/dL
  K: 4.5 meq/L
  LDH: 73.6 IU/L
  Na: 140.8 meq/L
  PL: 155.2 mg/dL
  RALB: 2.6 g/dL
  TBIL: 0.058 mg/dL
  TC: 77.6 mg/dL
  TG: 88 mg/dL
  TP: 5.4 g/dL
  gamma-GTP: 1 IU/L
[5]
  TERMINAL_BW: 193.6 g
  APTT: 16 s
  Bas: 0%
  Eos: 1%
  Fbg: 277.8 mg/dL
  Hb: 13.8 g/dL
  Ht: 41.7%
  Lym: 72%
  MCH: 20.9 pg
  MCHC: 33.2%
  MCV: 63 fL
  Mono: 3.2%
  Neu: 23%
  PT: 13.4 s
  Plat: 135.1 x10_4/uL
  RBC: 663 x10_4/ul
  Ret: 9.1%
  WBC: 64.9 x10_2/uL
  KIDNEY_L: 0.9 g
  KIDNEY_R: 0.9 g
  KIDNEY_TOTAL: 1.8 g
  LIVER: 8.3 g
  A/G: 0.9
  ALP: 1289.6 IU/L
  ALT: 38.8 IU/L
  AST: 72 IU/L
  BUN: 9.4 mg/dL
  CRE: 0.1 mg/dL
  Ca: 11 mg/dL
  Cl: 102.6 meq/L
  DBIL: 0.008 mg/dL
  GLC: 174.6 mg/dL
  IP: 10.4 mg/dL
  K: 4.3 meq/L
  LDH: 97.8 IU/L
  Na: 139.6 meq/L
  PL: 148.8 mg/dL
  RALB: 2.4 g/dL
  TBIL: 0.064 mg/dL
  TC: 78.2 mg/dL
  TG: 50 mg/dL
  TP: 5.2 g/dL
  gamma-GTP: 1 IU/L
[6]
  TERMINAL_BW: 193.6 g
  APTT: 18.3 s
  Bas: 0%
  Eos: 0.6%
  Fbg: 282 mg/dL
  Hb: 13.9 g/dL
  Ht: 42.3%
  Lym: 75.8%
  MCH: 20.6 pg
  MCHC: 32.8%
  MCV: 62.8 fL
  Mono: 2.2%
  Neu: 20.4%
  PT: 13.5 s
  Plat: 122.7 x10_4/uL
  RBC: 674 x10_4/ul
  Ret: 8.5%
  WBC: 87.5 x10_2/uL
  KIDNEY_L: 0.9 g
  KIDNEY_R: 0.9 g
  KIDNEY_TOTAL: 1.8 g
  LIVER: 8.3 g
  A/G: 0.9
  ALP: 1325.6 IU/L
  ALT: 36 IU/L
  AST: 67.4 IU/L
  BUN: 10 mg/dL
  CRE: 0.1 mg/dL
  Ca: 11.2 mg/dL
  Cl: 103.2 meq/L
  DBIL: 0.012 mg/dL
  GLC: 184.2 mg/dL
  IP: 10.9 mg/dL
  K: 4.5 meq/L
  LDH: 87.2 IU/L
  Na: 141.6 meq/L
  PL: 162.8 mg/dL
  RALB: 2.5 g/dL
  TBIL: 0.056 mg/dL
  TC: 85.4 mg/dL
  TG: 68.2 mg/dL
  TP: 5.3 g/dL
  gamma-GTP: 1.6 IU/L
[7]
  TERMINAL_BW: 192.1 g
  APTT: 16.7 s
  Bas: 0%
  Eos: 0.6%
  Fbg: 282.6 mg/dL
  Hb: 13.3 g/dL
  Ht: 40.5%
  Lym: 74.2%
  MCH: 20.9 pg
  MCHC: 32.8%
  MCV: 63.8 fL
  Mono: 2.4%
  Neu: 21.6%
  PT: 13.9 s
  Plat: 116.9 x10_4/uL
  RBC: 635.4 x10_4/ul
  Ret: 9.5%
  WBC: 86.1 x10_2/uL
  KIDNEY_L: 0.9 g
  KIDNEY_R: 0.9 g
  KIDNEY_TOTAL: 1.8 g
  LIVER: 7.6 g
  A/G: 0.9
  ALP: 1384.4 IU/L
  ALT: 41.8 IU/L
  AST: 73.4 IU/L
  BUN: 9 mg/dL
  CRE: 0.1 mg/dL
  Ca: 10.9 mg/dL
  Cl: 104 meq/L
  DBIL: 0.014 mg/dL
  GLC: 177.8 mg/dL
  IP: 10.6 mg/dL
  K: 4.4 meq/L
  LDH: 84.2 IU/L
  Na: 141 meq/L
  PL: 148 mg/dL
  RALB: 2.5 g/dL
  TBIL: 0.064 mg/dL
  TC: 76.4 mg/dL
  TG: 56.4 mg/dL
  TP: 5.1 g/dL
  gamma-GTP: 1.4 IU/L
[8]
  TERMINAL_BW: 208.3 g
  APTT: 17 s
  Bas: 0.2%
  Eos: 0.8%
  Fbg: 290.2 mg/dL
  Hb: 13.9 g/dL
  Ht: 41.6%
  Lym: 75.4%
  MCH: 20.8 pg
  MCHC: 33.4%
  MCV: 62.2 fL
  Mono: 2.8%
  Neu: 20.4%
  PT: 13 s
  Plat: 128.9 x10_4/uL
  RBC: 669.2 x10_4/ul
  Ret: 8.2%
  WBC: 97.7 x10_2/uL
  KIDNEY_L: 0.9 g
  KIDNEY_R: 0.9 g
  KIDNEY_TOTAL: 1.8 g
  LIVER: 9.9 g
  A/G: 0.9
  ALP: 1921.8 IU/L
  ALT: 44.8 IU/L
  AST: 60.2 IU/L
  BUN: 13.6 mg/dL
  CRE: 0.2 mg/dL
  Ca: 11.5 mg/dL
  Cl: 100.8 meq/L
  DBIL: 0.014 mg/dL
  GLC: 175.6 mg/dL
  IP: 10 mg/dL
  K: 4.3 meq/L
  LDH: 84.4 IU/L
  Na: 141.4 meq/L
  PL: 167.6 mg/dL
  RALB: 2.7 g/dL
  TBIL: 0.058 mg/dL
  TC: 85.2 mg/dL
  TG: 84.2 mg/dL
  TP: 5.6 g/dL
  gamma-GTP: 1 IU/L
